Reference: US5156846A, “Percutaneous drug delivery system” (University of Utah, priority 1991, dated 1992)
Read-outs that look alike come from different tables or passages of the source.

What was measured:
Nude Mouse Skin [1] = experiment: In vivo skin recovery following papain treatment: percent urinary recovery 7 days after papain (Example 1B); design: species or system congenitally athymic nude mice
Procedure: Experiments were conducted to measure the time required for papain-treated mice to return to normal levels of absorption. These experiments were conducted as described in Example 1A, except that following the removal of papain from the mouse's skin, the mice were maintained separately in metabolism cages for varying periods of time prior to the application of the labeled model compounds. After various time intervals, 150 μl of radiolabeled chemicals were applied separately on the 1 cm^2 marked areas on the backs of the mice, where papain had previously been applied. The mice were then kept in separate metabolism cages and at time intervals of 17, 41, and 65 hours, urine was collected and counted using a scintillation counter.

mouse skin [2] = experiment: Citric acid penetration through mouse skin with two sources of papain (Example 8); format: in vitro ADME; settings: FIG. 20, 0.170 mg papain in 0.1 ml of water; Sigma papain not activated
Procedure: Each enzyme preparation contained 0.170 mg of papain dissolved in 0.1 ml of water. One sample of papain was obtained from Allergan. The other was obtained from Sigma Chemical. […] The Sigma Chemical papain was not activated in this experiment.

[3] = test system: Papain-Treated Athymic Nude Mice Skin; experiment: In vitro permeation through excised papain-treated athymic nude mouse skin, Franz-type diffusion cells (Example 2); format: in vitro ADME, congenitally athymic nude mice
Procedure: Because of some complications encountered during studies utilizing papain treatment by in vivo method (e.g. extended excretion due to storage in various body compartments, delayed response times, etc.) it was decided that additional studies should be conducted wherein the mouse skin was allowed to recover in situ, then excised after various time intervals and evaluated by in vitro permeation methods.
These experiments were conducted by preparing, applying, and occluding papain solutions onto the backs of congenitally athymic nude mice in the same manner as described in Example 1A. At the end of the 24-hour papain treatment, the skin was again cleansed of excess solution. Skin was then excised from part of the animals. The remainder of the animals were housed individually in regular cages for various periods of time (24 hours and 48 hours), after which the treated areas were excised. Immediately following excision of the treated areas, the skins were mounted over Franz-Type, Single-Compartment Diffusion Cells. Four hundred μl of saturated solutions of radiolabeled citric acid, TEAB, glucose, and hydrocortisone were applied, individually, to the exposed surface of the mounted skins on the donor chamber. Saturated solutions of each of these substances were used in order to ensure maximum availability of labeled substances. At varying time intervals, 100 μl samples were removed from the receiver chambers for scintillation counting. All experiments were conducted at 25° C.

[4] = Effect of pH on drug penetration through hairless mouse skin pretreated with Sigma papain (Example 6B); format: in vitro ADME; design: E: unit not given here; settings: mouse, read-out: P (permeability)
Procedure: (§1) B. Effect of pH on drug penetration through hairless mouse skin pretreated with Sigma papain of concentration 0.093 mg/ml for 24 hours

[5] = test system: normal untreated hairless mouse skin; experiment: Effect of pH on drug penetration through normal untreated hairless mouse skin (Example 6A); format: in vitro ADME; settings: pH 8.0
[6] = as above; format: in vitro ADME; settings: mouse
From the text: A. Effect of pH on drug penetration through normal untreated hairless mouse skin

[7] = test system: hairless mouse skin pretreated with Sigma papain; experiment: Effect of pH on drug penetration through hairless mouse skin pretreated with Sigma papain (Example 6B); format: in vitro ADME; design: E: unit not given here; settings: for E: Sigma papain 0.093 mg/ml for 24 hours
Procedure: as §1

Nude Mouse Skin [8] = experiment: Percent urinary recovery of radiolabeled chemicals and protein through nude mouse skin immediately following papain treatment, and controls (Example 1A)
Procedure: Various anionic, cationic, and nonionic chemicals were utilized as model compounds to determine the influence of proteolytic enzymes of the transdermal penetration of these substances. […] Additional studies were performed using ^14 -C-labeled albumin, lysozyme, and insulin to determine the ability of the proteolytic enzymes to enhance the percutaneous absorption of larger molecules.
Two hundred μl of this solution was applied on to 1 cm^2 areas on the back of congenitally athymic nude mice. The 1 cm^2 areas were covered with folded gauze pads to absorb the excess papain solution, then the areas were occluded with a transparent dressing (Bioclusive Tape) and an adhesive tape. Each mouse was individually housed in separate cages for 24 hours. At the end of this time, residual papain on the surface of the mouse's skin was removed by washing. After cleansing the skin, 150 μl of radiolabeled material was applied separately on each marked area of mouse skin and covered with gauze sponge and Bioclusive tape and adhesive tape. Mice were kept in metabolism cages, one animal per cage, and urine samples collected for scintillation counting to determine the quantity of radiolabeled materials being excreted. Parallel studies were conducted simultaneously on non- papain-treated living mice. These studies served as controls against which the treated animals were measured.

mouse skin [9] = test system: mouse skin
From the text: In this experiment, varying amounts of Sigma papain, activated with cysteine and EDTA, were used.

skin = experiment: Pretreatment of skin samples with papain: drug penetration, skin damage and activation
Procedure: Whatever the enzyme or enzymes selected, each is typically admixed with a liquid, such as water or ethanol to form an enzyme preparation. The concentration of enzymes(s) in liquid will be of a sufficient quantity to increase the skin's permeability to selected drugs over a predetermined time period. […] Concentrations of papain in water will generally be greater than about 0.019 milligrams/milliliter (mg/ml). Preferred concentrations of papain in water will be less than about 0.093 mg/ml.
For example, papain from Sigma Chemical may be activated with the chelating agent ethylenediaminetetraacetic acid ("EDTA"). […] Amounts of EDTA in a papain enzyme preparation will vary from 2 mg/ml to about 20 mg/ml. The amino acid cysteine can also serve as an activating agent.

Hairless mouse skin = settings: papain 0.093 mg/ml, pH 7.4, 24 hours pretreatment
Procedure: Hairless mouse skin was pretreated with papain at a concentration of 0.093 mg/ml at pH 7.4 for 24 hours.

mouse skin [10] = experiment: Skin damage as measured by bleeding of mouse skin (Example 5); format: in vivo
Procedure: The absolute amounts and relative concentrations of an enzyme preparation containing papain to determine skin damage as measured by bleeding of mouse skin was determined.

[11] = 7 days following papain treatment
[12] = 7 hours exposure, 1 cm^2 section of skin, saturated solution in water, 25° C
[13] = pH 5.9, read-out: P (permeability)
[14] = pH 6.6, read-out: P (permeability)
[15] = pH 5.9, Sigma papain 0.093 mg/ml for 24 hours, pH 5.9
[16] = pH 6.6, Sigma papain 0.093 mg/ml for 24 hours, pH 6.6
[17] = pH 7.4, Sigma papain 0.093 mg/ml for 24 hours, pH 7.4
[18] = control, no papain treatment, immediate
[19] = immediately following papain treatment
[20] = papain greater than 0.093 mg/ml, pH 7.4

In the case of Albumin: 14-C-labeled albumin, the “Percent Recovery (urinary recovery)” value (Nude Mouse Skin [1]; [11]) is reported as 0.0%.

For O=C(O)CC(O)(CC(=O)O)C(=O)O [Citric Acid, citric acid], the “penetration through mouse skin” value (mouse skin [2]) was “enhanced to a greater extent by the Allergan papain than that of Sigma Chemical”, the “Percent Recovery (urinary recovery)” value (Nude Mouse Skin [1]; [11]) was 0.2% and the transdermal penetration [3, 12] was “about 55 mg”.

CC(=O)CC(c1ccccc1)c1c(O)c2ccccc2oc1=O (stereo not shown) [Warfarin, warfarin] gave a Papp ([4]; Sigma papain 0.093 mg/ml for 24 hours, pH 5.9) of 1.27 ×10⁻⁶ cm/s, a Papp ([4]; Sigma papain 0.093 mg/ml for 24 hours, pH 6.6) of 1.2 ×10⁻⁶ cm/s and a Papp ([4]; Sigma papain 0.093 mg/ml for 24 hours, pH 7.4) of 0.99 ×10⁻⁶ cm/s. For the same molecule, the Papp ([4]; Sigma papain 0.093 mg/ml for 24 hours, pH 8.0) was 1.21 ×10⁻⁶ cm/s.

In the case of CC(=O)[C@H]1CC[C@H]2[C@@H]3CCC4=CC(=O)CC[C@]4(C)[C@H]3CC[C@]12C [Progesterone, progesterone], the “P (permeability)” value [5] is reported as 0.247 ×10⁻⁶ cm/s, the Papp [6, 13] is reported as 2.88 ×10⁻⁶ cm/s and the Papp [6, 14] is reported as 2.92 ×10⁻⁶ cm/s. The E ([7]; pH 5.9) was 1.25, the E ([7]; pH 6.6) was 1.50 and the E ([7]; pH 7.4) was 1.17. For the same molecule, the E ([7]; pH 8.0) was 1.17, the Papp [4, 15] was 3.6 ×10⁻⁶ cm/s and the Papp [4, 16] was 4.39 ×10⁻⁶ cm/s. For the same molecule, the Papp [4, 17] was 3.41 ×10⁻⁶ cm/s.

In the case of OC[C@H]1OC(O)[C@H](O)[C@@H](O)[C@@H]1O (stereo partly shown) [Glucose, glucose], the “Percent Recovery (urinary recovery)” value (Nude Mouse Skin [1]; [11]) is reported as 0.1%, the “Percent Recovery (urinary recovery)” value (Nude Mouse Skin [8]; [18]) is reported as 0.07% and the “Percent Recovery (urinary recovery)” value (Nude Mouse Skin [8]; [19]) is reported as 1.8%. The transdermal penetration [3] was “about 22 mg”.

With C[C@]12CCC(=O)C=C1CC[C@@H]1[C@@H]2[C@@H](O)C[C@@]2(C)[C@H]1CC[C@]2(O)C(=O)CO [Hydrocortisone, hydrocortisone] the “Percent Recovery (urinary recovery)” value (Nude Mouse Skin [1]; [11]) was 0.6%, the “Percent Recovery (urinary recovery)” value (Nude Mouse Skin [8]; [18]) was 2.5% and the “Percent Recovery (urinary recovery)” value (Nude Mouse Skin [8]; [19]) was 24.7%. For the same molecule, the transdermal penetration ([3]; 7 hours exposure, 1 cm^2 section of skin, saturated solution in ethanol, 25° C) was “about 125 μg”.

For CC[N+](CC)(CC)CC.[Br-] [TEAB, tetraethylammonium bromide], the “Percent Recovery (urinary recovery)” value (Nude Mouse Skin [1]; mouse, in vivo, topical or ocular) was 5.3%, the transdermal penetration [3, 12] was roughly 19 mg and the “drug penetration through mouse skin” value (mouse skin [9]) was “varies directly with the amount of papain used”. The “penetration through the skin” value (skin) was “increases the penetration” and the “increase in absorption in comparison to normal, untreated mouse skin” value (Hairless mouse skin) was 33 fold.

With CC(=O)OCC[N+](C)(C)C.[Cl-] [Acetylcholine Chloride, acetylcholine chloride] the Papp [6, 13] was 0.0291 ×10⁻⁶ cm/s, the Papp [6, 14] was 0.026 ×10⁻⁶ cm/s and the Papp ([6]; pH 7.4, read-out: P (permeability)) was 0.032 ×10⁻⁶ cm/s. For the same molecule, the Papp ([6]; pH 8.0, read-out: P (permeability)) was 0.0466 ×10⁻⁶ cm/s, the E ([7]; pH 5.9) was 103.09 and the E ([7]; pH 6.6) was 149.23. For the same molecule, the E ([7]; pH 7.4) was 100.94, the E ([7]; pH 8.0) was 67.38 and the Papp [4, 15] was 3 ×10⁻⁶ cm/s. The Papp [4, 16] was 3.88 ×10⁻⁶ cm/s, the Papp [4, 17] was 3.23 ×10⁻⁶ cm/s and the Papp ([4]; pH 8, Sigma papain 0.093 mg/ml for 24 hours, pH 8.0) was 3.14 ×10⁻⁶ cm/s.

With Lysozyme: 14-C-labeled lysozyme the “Percent Recovery (urinary recovery)” value (Nude Mouse Skin [1]; [11]) was 0.0%.

For C=CCc1ccccc1OCC(O)CNC(C)C (stereo not shown) [Alprenolol, alprenolol], the E ([7]; pH 5.9) was 22.39, the E ([7]; pH 6.6) was 17.18 and the E ([7]; pH 7.4) was 7.17. The E ([7]; pH 8.0) was 7.86 and the “P (permeability)” value ([7]; mouse, pH 8) was 1.65 = 10^-6 cm/sec.

In the case of Insulin: 14-C-labeled insulin, the “Percent Recovery (urinary recovery)” value (Nude Mouse Skin [1]; [11]) is reported as 0.0%.

B1: papain: A preferred enzyme is papain, which is readily available from Allergan of Irvine, Calif., Sigma Chemical Company of St. Louis, Mo., and other sources (protein, UniProt P00784 134-345, looked up)
Papain: IPEYVDWRQKGAVTPVKNQGSCGSCWAFSAVVTIEGIIKIRTGNLNEYSEQELLDCDRRSYGCNGGYPWSALQLVAQYGIHYRNTYPYEGVQRYCRSREKGPYAAKTDGVRQVQPYNEGALLYSIANQPVSVVLEAAGKDFQLYRGGIFVGPCGNKVDHAVAAVGYGPNYILIKNSWGTGWGENGYIRIKRGTGNSYGVCGLYTSSFYPVKN
For B1, the “time until bleeding observed” value (mouse skin [10]; absolute amount of papain: 0.010 mg/0.108 ml) was greater than 24 h, the “time until bleeding observed” value (mouse skin [10]; absolute amount of papain: 0.030 mg/0.108 ml) was “about 5.0 hrs” and the “time until bleeding observed” value (mouse skin [10]; absolute amount of papain: 0.050 mg/0.180 ml) was “about 1.5 hrs”. For the same molecule, the “time until bleeding observed” value (mouse skin [10]; absolute amount of papain: 0.070 mg/0.250 ml) was “about 0.5 hrs”, the “time until bleeding observed” value (mouse skin [10]; concentration of papain: 0.010 mg/0.108 ml) was greater than 24 h and the “time until bleeding observed” value (mouse skin [10]; concentration of papain: 0.020 mg/0.108 ml) was greater than 24 h. The “time until bleeding observed” value (mouse skin [10]; concentration of papain: 0.030 mg/0.108 ml) was roughly 24 h, the “time until bleeding observed” value (mouse skin [10]; concentration of papain: 0.040 mg/0.108 ml) was roughly 24 h and the “penetration of drug through the skin” value (skin; 0.10 molar cysteine with 0.0375 molar EDTA as activating agent) was “greater penetration of drug through the skin”. The drug penetration (skin; [20]) was “greater drug penetration” and the skin damage (skin; [20]) was “damages the skin, possibly leading to bleeding”.
